We go through five compounds from publication PMC6925188, “PBRM1 acts as a p53 lysine-acetylation reader to suppress renal tumor growth” (Nature Communications, 2019).

The subject of one assay is PBRM1-p53 interaction. Nature of the assay: Co-immunoprecipitation of Flag-PBRM1 and Myc-p53 (anti-Flag M2) in H1299 cells. It counts as cell-based. The text has this:
Fig. 1 PBRM1 and p53 display a physical association that is enhanced after DNA damage. a U2OS cells (left) and HEK293T cells (right) were transfected with vector or Flag-PBRM1 and harvested for immunoprecipitation with Flag-M2 beads and elution with 3X Flag peptide. […] Lysates were subjected to immunoprecipitation with Flag-M2 beads. […] Lysates were immunoprecipitated with p53 antibody. The bound PBRM1 and p53 were examined by immunoblots. Source data are provided as a Source Data file.
For anti-Flag immunoprecipitation, cell pellets harvested from one 10 cm culture dish were resuspended in 500 µl hypotonic buffer (10 mM Tris-HCl, pH 8.0, 1.5 mM MgCl2, 10 mM KCl) with protease and phosphatase inhibitors, 2 μM TSA and 10 mM NAM, and samples were incubated on ice for 15 min. Twenty-five microliters of Triton X-100 was added and samples were vortexed for 10 s. After centrifuging for 30 s at 14,000 × g, supernatants were removed and pellets were resuspended in 100 µl hypertonic buffer (20 mM Tris-HCl pH 8.0, 420 mM KCl, 1.5 mM MgCl2, 20% (v/v) glycerol) with protease and phosphatase inhibitors, 2 μM TSA and 10 mM NAM and vortexed for 10 s. Pellets were incubated on ice for 40 min and vortexed for 15 s every 10 min. After centrifuging for 10 min at 14,000 × g, supernatants were collected and diluted with 300 µl EBC buffer (50 mM Tris-HCl (pH 7.5), 120 mM NaCl, 0.5% NP-40) with protease and phosphatase inhibitors, 2 μM TSA and 10 mM NAM. […] Beads were washed four times with EBC buffer and eluted with 3X Flag peptide (F4799, Sigma-Aldrich) overnight at 4 °C. The input and Flag-elution were analyzed by SDS-PAGE and immunoblot.
Supplementary Figure 2. […]
a. Vectors, Flag-PBRM1 or Myc-p53 were transfected into H1299 cells as indicated, and treated with 5 µM nicotinamide or vehicle. Lysates were used for anti-Flag immunoprecipitation and 3X Flag peptide elution. The inputs and eluates were immunoblotted with the indicated antibodies. […]
Flag-PBRM1, wildtype or K382Q mutated Myc-p53 were transfected into H1299 cells with indicated combinations. Lysates were used for anti-Flagimmunoprecipitation followed by Flag peptide elution. […]

Assay [1] concerns ACHN, Caki-1 and Ren-01 cells. The experiment in a line: Immunoblot of p53 targets, kidney cancer cells with PBRM1 shRNA knockdown. It counts as cell-based. Conditions: 10 μM Nutlin-3a. Here is the method:
Lysates were analyzed by immunoblots. c RCC4 cells with or without p53 KO were transfected with vector or Flag-PBRM1 at the indicated amounts. […] Cells were harvested for RT-qPCR (g) or ChIP followed by qPCR (h). […] Representative data is shown in i. Quantification of cell cycle phase is shown in j. Source data are provided as a Source Data file.
After washing with ice-cold PBS, cells were scraped on ice and centrifuged at 10,000 × g for 1 min at 4 °C. For immunoblot analysis, cell pellets were lysed in 1% SDS containing a protease inhibitor cocktail followed by sonication with a FB50 sonic dismembrator (Fisher Scientific) at 20% amplitude for 15 s twice. After centrifuging for 10 min at 14,000 × g, the supernatants were combined with 5X SDS loading buffer (5% mercaptoethanol, 0.05% Bromophenol blue, 30% glycerol, 10% SDS, 250 mM Tris-HCl (pH 6.8)), boiled for 5 min and used in SDS-PAGE. After standard western blot procedures, the blots were developed using the ImageQuant LAS 4000 (GE healthcare Life Sciences) or ChemiDoc MP Imaging System (Bio-rad) with HyGLO™ Chemiluminescent HRP Detection Reagent (E2500, Denville Scientific) or Immobilon™ Western Chemiluminescent HRP Substrate (WBKLS0500, Millipore). […]
the indicated times. Lysates were analyzed via immunoblots. b. […]
were analyzed by immunoblots. c. […]
Lysates were analyzed via immunoblots. e. […]
Lysates were analyzed via immunoblots. f, g, h. […]

In a further assay the test system is endogenous PBRM1. The experiment in a line: Peptide pull-down, endogenous PBRM1 from cell lysates. Conditions: H1299 lysate, Supplementary Fig. 2e, f. It counts as binding. Here is the method: Fig. 2 Acetylation on K382 of p53 promotes PBRM1 binding. a Schematic depiction of the functional domains of p53 and truncated constructs. FL full-length, TAD transactivation domain, PRD proline-rich domain, DBD DNA-binding domain, TD tetramerization domain, CTD C-terminal domain. b HEK293T cells were transfected with vectors, Flag-PBRM1, Myc-p53 and Myc-p53 truncated constructs. After immunoprecipitation with Flag-M2 beads, the inputs and eluates were analyzed by immunoblots. c Vectors, Flag-PBRM1, Myc-p53 and HA-Tip60, HA-PCAF, HA-CBP or HA-p300 were transfected into HEK293T cells as indicated. Lysates were used for anti-Flag immunoprecipitation and 3X Flag peptide elution. The inputs and eluates were analyzed by immunoblots. d HEK293T cells were transfected with Flag-PBRM1, Myc-p53 and HA-p300. The amount of HA-p300 was titrated as indicated. Lysates were used in immunoprecipitations with Flag-M2 beads, and inputs and eluates were analyzed by immunoblots. e Vectors, Flag-PBRM1, HA-p300 and Myc-p53 (WT) or Myc-p53 6KR mutant were transfected into HEK293T cells as indicated. Lysates were used for anti-Flag immunoprecipitation and 3X Flag peptide elution. Inputs and eluates were examined by immunoblots. […] The peptides were pulled down with streptavidin beads and the associated proteins were analyzed by immunoblots. […]

For a further assay, the system named is BDs of PBRM1. Conditions: shorter peptide, residues 375–388, 14 residues; cited from earlier work. The text has this:
Although acetylation is indispensable for p53′s transcriptional function and SWI/SNF complexes function as transcriptional co-factors, no acetylation-dependent interaction has been reported between p53 and SWI/SNF complexes. In this study, we report that acetylation on p53 lysine 382 enhanced the interaction between PBRM1 and p53 via recognition by PBRM1 BD4. […] The difference is likely due to the length of the peptides used. In our experiments, the p53 peptide used was much longer than theirs (368–393, 26 re ...

Where no end group is shown, it is not given here. The star is where a group is joined. Biotin = O=C1N[C@H]2[C@H](CS[C@H]2CCCCC(=O)*)N1

Regarding `NC(=O)c1cccnc1` [Nicotinamide], the PBRM1-p53 interaction result in the assay with PBRM1-p53 interaction (H1299, 5 µM nicotinamide) is given as “enhanced”.
Consider `COc1ccc(C2=N[C@@H](c3ccc(Cl)cc3)[C@@H](c3ccc(Cl)cc3)N2C(=O)N2CCNC(=O)C2)c(OC(C)C)c1` [Nutlin-3a], for which the “p21 induction by p53 with PBRM1 knockdown” value in assay [1] is listed as “reduced”.
“K382Q: Biot-K382Q (368-393) p53 peptide (Biotin-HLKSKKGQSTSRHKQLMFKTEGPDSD; UniProt P04637 368-393, looked up, variant K382Q)”: the “binding to PBRM1 of K382Q peptide” value in the assay with endogenous PBRM1 was “failed to mimic K382Ac to enhance binding to PBRM1”.
In the case of bleomycin, the “PBRM1 and exogenous p53 protein levels” value in the assay on PBRM1-p53 interaction (H1299, etoposide 50 μM or bleomycin 10 μg/ml) is reported as “neither the PBRM1 nor the exogenous p53 levels changed”. In addition, the PBRM1-p53 interaction entry in the assay with PBRM1-p53 interaction (H1299 co-transfected with PBRM1 and p53, bleomycin 10 μg/ml) is reported as “enhanced”.
For the compound “p53 K382Ac peptide (375–388): p53 K382Ac peptide of previous report, 375–388, 14 residues (QSTSRHKK(Ac)LMFKTE; not fully specified; UniProt P04637 375-388, looked up, fragment)”, in the assay with BDs of PBRM1, the “binding of PBRM1 BDs to p53 K382Ac peptide” value is “did not bind”.
